O=C(O)c1ccccc1
solubility (mole fraction)
Conditions	283.15 K	288.15 K	293.15 K	298.15 K	303.15 K	308.15 K	313.15 K	318.15 K	323.15 K	328.15 K
in 2-pentanone	0.163	0.18	0.196	0.215	0.234	0.256	0.279	0.315	0.349	0.388
in diacetone alcohol	0.234	0.251	0.269	0.287	0.306	0.315	0.336	0.367	0.396	0.426
in isooctane	0.002	0.003	0.005	0.007	0.01	0.013	0.018	0.023	0.031	0.04
in methyl acetate	0.125	0.152	0.175	0.198	0.213	0.237	0.26	0.282	0.318	0.348
in n-pentyl acetate	0.091	0.112	0.133	0.159	0.179	0.198	0.226	0.252	0.282	0.316
in tributyl phosphate	0.492	0.507	0.522	0.53	0.543	0.553	0.563	0.581	0.6	0.631

From BigSolDB 2.1
